{"source": "paper PMC11532403", "about": "(Signal Transduction and Targeted Therapy, 2024)", "key": {"RET^G810S": {"molecular_target": "T1, RET^G810S (Homo sapiens, UniProt P07949, G810S)", "T1 construct": "RET (residues 658-1114) was cloned into pFastBac vector containing an N-terminal Glutathione S-transferase (GST) tag; made in house; host or cells: Sf9 insect cells (baculovirus)", "T1 sequence (P07949 658-1114 G810S)": "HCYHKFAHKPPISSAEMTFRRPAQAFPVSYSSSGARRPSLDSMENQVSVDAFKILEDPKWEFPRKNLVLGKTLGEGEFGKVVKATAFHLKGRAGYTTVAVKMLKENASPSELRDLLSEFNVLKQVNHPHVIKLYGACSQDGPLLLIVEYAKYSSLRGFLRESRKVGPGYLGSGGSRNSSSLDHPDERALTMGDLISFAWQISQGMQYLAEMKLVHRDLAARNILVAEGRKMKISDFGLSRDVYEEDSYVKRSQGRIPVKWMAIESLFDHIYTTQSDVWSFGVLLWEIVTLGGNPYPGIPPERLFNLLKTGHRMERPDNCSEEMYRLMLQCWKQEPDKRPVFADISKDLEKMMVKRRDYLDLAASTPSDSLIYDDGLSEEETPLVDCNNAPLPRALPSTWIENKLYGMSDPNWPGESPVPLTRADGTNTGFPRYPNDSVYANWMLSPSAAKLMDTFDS", "experiment": "HTRF kinEASE-TK kinase assay", "conditions": "ATP at Km; read-out: Biochemical IC50 RET^G810S", "protocol": "(§1) RET (residues 658-1114) was cloned into pFastBac vector containing an N-terminal Glutathione S-transferase (GST) tag. Mutagenesis was performed on this vector to generate the RET^V804M single mutant: RETV804MmutF: […]a[…] and RETV804MmutR: […]t[…]; the RET^M918T single mutant: RETM918TmutF: […]c[…] and RETM918TmutR: […]g[…]; the RET^G810S single mutant: RETG810SmutF: […]tc[…] and RETG810SmutR: […]ga[…]. Recombinant baculovirus for expression of GST-RET was generated by co-transfection of Sf9 cells. Plaque-purified viruses were amplified, titrated and used to infect Sf9 cells incubated at 27 °C and 80 rpm. Cells were harvested 72 h post infection for protein purification.\n(§2) Frozen cell pellets (1 liter culture/each) were thawed and resuspended in 20 ml of buffer A (50mM Tris-HCl, pH 7.5, 150mM NaCl, 0.1mM EDTA, 0.5% Triton X-100, 20% glycerol and 1* protease inhibitor [#539134-1SETCN, Merck]) and sonicated. The cell lysates were centrifuged at 20000 rpm for 40 min at 4 °C, then applied to GSH-Sepharose 4 Fast Flow (GE Healthcare) at 4 °C. After washing twice with 10 mL of buffer B (50mM Tris-HCl, pH 7.5, 150mM NaCl, 0.1 mM EDTA, 20% glycerol), the protein was eluted with elution buffer (50mM Tris-HCl, pH 7.5, 150mM NaCl, 0.1mM EDTA, 20% glycerol, 20mM Glutathione, 1 mM DTT) and concentrated using Amicon Ultra-15. Purities of proteins were 90% as determined by SDS-PAGE and Coomassie Blue stain.\n(§3) Kinase activity was detected using CisBio HTRF kinEASE-TK kit. The assay was performed in 384-well white plates (#3574, Corning) in a reaction volume of 10 μL containing a final concentration of 50 mM HEPES, pH 7.5, 0.1 mM Na3VO4,0.01% BSA, 0.001% Tween-20, 5 mM MgCl2, […], 1 mM DTT, 1 μM TK-Substrate-biotin. The reaction was initiated by the addition of ATP at Km and indicated recombinant RET proteins. […] After incubation at 23 °C for 1 hour, FRET signal was measured on an EnVision reader (PerkinElmer Inc.)."}, "RET^M918T": {"molecular_target": "T2, RET^M918T (Homo sapiens, UniProt P07949, M918T)", "T2 construct": "RET (residues 658-1114) was cloned into pFastBac vector containing an N-terminal Glutathione S-transferase (GST) tag; made in house; host or cells: Sf9 insect cells (baculovirus)", "T2 sequence (P07949 658-1114 M918T)": "as the sequence (P07949 658-1114 G810S) above, with S153G, M261T counted along it", "experiment": "HTRF kinEASE-TK kinase assay", "conditions": "ATP at Km; read-out: Biochemical IC50 RET^M918T", "protocol": "as §1, §2, §3"}, "RET^WT": {"molecular_target": "T3, RET^WT (Homo sapiens, UniProt P07949)", "T3 construct": "RET (residues 658-1114) was cloned into pFastBac vector containing an N-terminal Glutathione S-transferase (GST) tag; made in house; host or cells: Sf9 insect cells (baculovirus)", "T3 sequence (P07949 658-1114)": "as the sequence (P07949 658-1114 G810S) above, with S153G counted along it", "experiment": "HTRF kinEASE-TK kinase assay", "conditions": "ATP at Km; read-out: Biochemical IC50 RET^WT", "protocol": "as §1, §2, §3"}, "[1]": {"system": "HEK293T-KIF5B-RET V804M cells", "experiment": "Proliferation assay (CellTiter-Glo)", "format": "cell-based", "conditions": "Homo sapiens, read-out: Cellular Viability IC50", "protocol": "(§4) The cell lines HEK293T, Baf3, TT cell and NIH-3T3 were obtained from the Cell Resource Center, Peking Union Medical College (PCRC). HEK293T and NIH-3T3 were maintained in DMEM high glucose medium (#C3113-0500, Vivacell) supplemented with 10 % FBS (#10500064, Gibco) and 1 % Penicillin-Streptomycin (#15140122, Gibco). The murine Pro‐B cell line Baf3 was cultured in RPMI 1640 medium (#C3010, Vivacell) supplemented with 10 % FBS, 1 % Penicillin-Streptomycin and 1 ng/mL recombinant murine interleukin-3 (#213-13, PeproTech). All stably transformed BaF3 cells were cultured in RPMI 1640 without IL‐3. The TT MTC cell was grown in Ham's F-12K medium (#21127022, Gibco) supplemented with 10 % FBS and 1 % Penicillin-Streptomycin. Cells were cultured at 37 °C under 5 % CO2 and high humidity conditions.\n(§5) KIF5B-RET, CCDC6-RET and mutations were cloned into pCDHL vector and were verified by sequencing. Reah RET expression vectors were separately co‐transfected with psPAX2 and pMD2.G packaging plasmids into 60-70% confluent HEK 293T cells maintained in 2 mL of culture medium in six‐well plates using Polyethyleneimine (PEI) transfection grade. Virus containing media was harvested after 48 h and filtered with 0.45 μm membrane and stored at -80 °C prior to infection. For infection of Ba/F3 cells, 1 mL of viral supernatant and 8 μg/mL polybrene were added to 5 million cells per well in six‐well plates. Infected cells were selected with the addition of 1 μg/mL puromycin for 2 weeks in RPMI-1640/ 10% FBS/ 1 ng/mL IL-3 medium. Subsquently, puromycin-resistant cells were cultured in IL-3-free medium for 1 week and RET fusion proteins were confirmed by immunoblot analysis.\n(§6) Cell viability was assessed by luminescence using CellTiter-Glo 2.0 assay (Promega). IC50 curve fitting was performed using GraphPad Prism 9.0."}, "[2]": {"system": "HEK293T-KIF5B-RET WT cells", "experiment": "Proliferation assay (CellTiter-Glo)", "format": "cell-based", "conditions": "Homo sapiens, read-out: Cellular Viability IC50", "protocol": "as §4, §5, §6"}, "[3]": {"experiment": "Plasma protein binding, rapid equilibrium dialysis", "format": "in vitro ADME", "conditions": "human, read-out: Plasma protein binding rate (converted)"}, "CYP2D6": {"molecular_target": "T4, CYP2D6 (Homo sapiens, UniProt P10635)", "T4 construct": "substrates of different CYP450 enzymes in mixed human liver microsomes; from tissue; host or cells: mixed human liver microsomes", "experiment": "CYP inhibition in human liver microsomes", "format": "in vitro ADME", "conditions": "0.5-25 μM"}, "[4]": {"experiment": "28-day repeat-dose toxicity", "format": "in vivo", "conditions": "SD, rat, plasma, po; for AUC(0-t): read-out: AUClast at STD10, day 28; for Cmax: read-out: Cmax at STD10, day 28"}, "SD rats": {"system": "SD rats", "experiment": "28-day repeat-dose toxicity", "format": "in vivo"}, "[5]": {"system": "Salmonella typhimurium and Escherichia coli", "format": "cell-based"}, "[6]": {"conditions": "preclinical SD rat repeated administration"}}, "note": "Where two headings read alike, the source gives them in different places.", "data": [{"smiles": "COc1ccc(CN2C3CC2CN(c2ccc(-c4cc(N5CC(C)(O)C5)cn5ncc(C#N)c45)cn2)C3)cn1", "note": "[SY-5007, 6-(3-hydroxy-3-methylazetidin-1-yl)-4-(6-(6-((6-methoxypyridin-3-yl)methyl)-3,6-diazabicyclo[3.1.1]heptan-3-yl)pyridin-3-yl)pyrazolo[1,5-a]pyridine-3-carbonitrile]", "values": [{"measurement": "IC50", "setting": "RET^G810S", "value": 2.07, "unit": "nM"}, {"measurement": "IC50", "setting": "RET^M918T", "value": 0.84, "unit": "nM"}, {"measurement": "IC50", "setting": "RET^WT", "value": 0.339, "unit": "nM"}, {"measurement": "IC50", "setting": "[1]", "value": 99, "unit": "nM"}, {"measurement": "IC50", "setting": "[2]", "value": 54.4, "unit": "nM"}, {"measurement": "fraction unbound", "setting": "[3]", "value": 0.061}, {"measurement": "IC50", "setting": "CYP2D6", "value": "> 25000", "unit": "nM"}, {"measurement": "AUC(0-t)", "setting": "[4]; female, females 60 mg/kg", "value": 122, "unit": "µg·h/mL"}, {"measurement": "Cmax", "setting": "[4]; female, females 60 mg/kg", "value": 14900, "unit": "ng/mL"}, {"measurement": "AUC(0-t)", "setting": "[4]; male, males 30 mg/kg", "value": 111, "unit": "µg·h/mL"}, {"measurement": "Cmax", "setting": "[4]; male, males 30 mg/kg", "value": 8160, "unit": "ng/mL"}, {"measurement": "STD10", "setting": "SD rats; female SD rats, GLP long toxicity study", "value": 60, "unit": "mg/kg"}, {"measurement": "STD10", "setting": "SD rats; females, 28 days", "value": 60, "unit": "mg/kg"}, {"measurement": "STD10", "setting": "SD rats; male SD rats, GLP long toxicity study", "value": 30, "unit": "mg/kg"}, {"measurement": "STD10", "setting": "SD rats; males, 28 days", "value": 30, "unit": "mg/kg"}, {"measurement": "Electrolyte abnormalities (blood PK)", "setting": "SD rats; [6]", "value": "? Abnormalities such as blood PK were found in the preclinical SD rat and Beagle repeated administration test of this product, and the relevant regulations were carried out in consideration of the fact that similar mechanism of action drugs have been reported."}, {"measurement": "Plasma protein: TP, ALB, A/G", "setting": "SD rats; [6]", "value": "? TP, ALB, A/G were abnormal in the repeated administration test of preclinical SD rats of this product, and considering that drugs with similar mechanisms of action have been reported, relevant provisions are made."}, {"measurement": "TG (hyperlipidemia)", "setting": "SD rats; [6]", "value": "? TG is abnormal in the repeated administration test of preclinical SD rats of this product, and considering that drugs with similar mechanisms of action have been reported, relevant provisions are made."}, {"measurement": "Bleeding tendency: gastric mucosa and ileum findings", "setting": "SD rats; preclinical SD rats, repeated dosing", "value": "? This drug was found to have gastric mucosal reddening and ileal discolouration in preclinical SD rats and Beagle dogs in repeated dosing tests, so the relevant provisions were made."}, {"measurement": "Kidney: creatinine", "setting": "SD rats; repeat dose study in SD rats", "value": "elevated creatinine"}, {"measurement": "Ames test result", "setting": "[5]", "value": "negative"}]}]}
